Our source for the GI50 and TGI values is PubChem BioAssay (NCI).

Structures are written as SMILES. Where “and” joins values, the source holds several entries; their conditions need not be identical. Equal values may be shown once.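 1) Cells in 96-well plates. 2) Compound, 48 h, 5 concentrations. 3) Linear interpolation between surrounding doses. 4) Unreached endpoint = highest concentration. GI50 marks 50% less growth. TGI is the concentration that stops growth completely.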

Experiment in all cases: NCI tumour cell line growth inhibition, 48 h
Assay [1] relates to T-47D breast.
Assay [2] concerns MCF7 breast.
The subject of assay [3] is BT-549 breast.
Assay [4] concerns MDA-N.

Turning to `COc1cc(C(=O)N2CCN(c3ncccn3)CC2)c(N)cc1OCc1ccccc1`, the GI50 in assay [1] and in assay [2] was greater than 100 µM throughout. Besides, the TGI in assay [1] and in assay [2] was greater than 100 µM each time.

Consider `c1ccc2c(c1)c1c(c3ccccc32)CN2CCCC2C1` (configuration not stated), for which the TGI in assay [3] was 53.9 µM; in assay [1], greater than 100 µM; in assay [4], 14.2 µM; in assay [2], 11.4 µM.

With `O=CN1CCN(CC(O)CN2CCCCC2)CC1` (configuration not stated), the TGI in assay [3], in assay [1], in assay [4] and in assay [2] was greater than 100 µM in each case.

On to `Cc1cc(C)c(/C=C2\C(=O)Nc3ccc(NC(=O)CCCCCCC(=O)NO)cc32)[nH]1`, for which the GI50 in assay [3] was 4.43 µM; in assay [2], 0.529 µM. Further, the TGI in assay [3] and in assay [2] was greater than 100 µM in each case.

For the molecule `O=C(Nc1ccc(F)cc1)c1cc(S(=O)(=O)Nc2nc3ccccc3o2)c(SCc2ccccc2)cc1Cl`, the GI50 in assay [3] was 18.5 µM; in assay [1], 28.3 µM; in assay [2], 24.8 µM. Besides, the figures for the TGI in assay [3], in assay [1] and in assay [2] were 38.9 µM, greater than 100 µM and 63.7 µM, respectively.

Consider `COc1ccc(CCNC(=O)c2ccc(NC3=C(Cl)C(=O)N(Cc4ccccc4)C3=O)cc2)cc1OC`, for which the GI50 is 7.68 µM in assay [3], 5.31 µM in assay [1] and 6.32 µM in assay [2]. Also, the TGI in assay [3], in assay [1] and in assay [2] was greater than 100 µM in each case.

For `c1ccc2nc3c(nc2c1)sc1ccccc13`, the TGI in assay [3], in assay [1] and in assay [2] was greater than 100 µM each time.

For the molecule `C1=C\COCc2cc(ccc2OCCN2CCCC2)Nc2nccc(n2)-c2cccc(c2)COC/1`, the GI50 is 4.67 µM in assay [3], 1.37 µM in assay [1] and 0.772 µM in assay [2]. Also, the TGI amounted to 6.66 µM in assay [3], 5.12 µM in assay [1] and 3.37 µM in assay [2].

On to `N=C(N)c1ccc2nc(-c3cc(CC(=O)N[C@@H](CC(=O)O)C(=O)O)cc(-c4cc(S(N)(=O)=O)ccc4O)c3O)[nH]c2c1`, for which the GI50 in assay [3], in assay [1] and in assay [2] was greater than 100 µM each time. The TGI in assay [3], in assay [1] and in assay [2] was greater than 100 µM throughout.

With `O=C1NC(=O)C(c2cccc([N+](=O)[O-])c2)=C1Nc1cc(Cl)c(O)c(Cl)c1`, the GI50 in assay [3] was greater than 16.2 µM; in assay [1], greater than 25 µM; in assay [2], greater than 25 µM. Besides, the TGI in assay [3], in assay [1] and in assay [2] was greater than 25 µM in each case.

In the case of `Cc1cc(C)c(NC(=O)c2sc3nc4c(cc3c2N)CN(Cc2ccccc2)CC4)c(C)c1`, the GI50 in assay [3] was 4.05 µM; in assay [1], 2.62 µM; in assay [2], 1.61 µM. In addition, the TGI in assay [3] is 57.6 µM; in assay [1], greater than 100 µM; in assay [2] it was 32.2 µM.

Consider `COc1ccc(-c2ccc(-c3ccc(C(=N)N)s3)s2)cc1`, for which, in assay [1], the GI50 was 0.243 µM and the TGI turned out to be 0.596 µM.

With `[N-]=[N+]=Nc1cc(=O)n2c3c(cccc13)CCC2`, the TGI in assay [3], in assay [1], in assay [4] and in assay [2] was greater than 100 µM each time.

Turning to `COc1cc2c(c(OC)c1OC)-c1ncc3cc4c(cc3c1C2)OCO4`, in assay [3], the GI50 was 3.76 µM and the TGI came out at 20.1 µM.

Turning to `CSc1ccc2c(c1)C(=O)c1c-2n(CCCBr)c(=O)c2cc([N+](=O)[O-])ccc12`, the GI50 in assay [3] is 80.7 µM; in assay [1] it was 17.8 µM; in assay [2], 1.58 µM. Also, the TGI in assay [3], in assay [1] and in assay [2] was greater than 100 µM throughout.

As for `CCCCCOc1ccc(/C=N/Nc2cc(C)nc3ccc(Br)cc23)cc1`, the figures for the GI50 in assay [3], in assay [1] and in assay [2] were 1.77 µM, 1.81 µM and 1.71 µM, respectively. Besides, the TGI amounted to 3.43 µM in assay [3], 3.89 µM in assay [1] and 3.68 µM in assay [2].

With `[N-]=[N+]=Nc1cc(=O)[nH]nc1-c1ccccc1`, the TGI in assay [3], in assay [1], in assay [4] and in assay [2] was greater than 100 µM each time.

`CC1=NC(=Cc2cc(Br)cc(Br)c2)C(=O)N1n1c(-c2ccccc2)nc2ccccc2c1=O`: the TGI in assay [3], in assay [1], in assay [4] and in assay [2] was greater than 100 µM each time.

Turning to `C=C1C(=O)O[C@H]2[C@H]1CC/C(COC(=O)/C=C\C(=O)NCc1ccc(Cn3c(=O)sn(CCCC)c3=O)cc1)=C\CC[C@@]1(C)O[C@@H]21`, the values for the GI50 in assay [3], in assay [1] and in assay [2] were 0.909 µM, 1.27 µM and 0.365 µM, respectively. For the same molecule, the values for the TGI in assay [3], in assay [1] and in assay [2] were 2.23 µM, 4.22 µM and 2.03 µM, respectively.

With `CN1C(=O)/C(=C/c2c(Cl)n(C)c3ccccc23)c2ccccc21`, the GI50 in assay [3] is 3.31 µM; in assay [2] it was 3.02 µM and 2.15 µM. Moreover, the TGI was 9.25 µM in assay [3], 0.825 µM in assay [1] and greater than 100 µM in assay [2].

`N#CC1=C(N)Oc2cc(O)ccc2C1c1cccc2ccccc12` (configuration not stated): the GI50 in assay [3] is 7.52 µM; in assay [1], 17.2 µM; in assay [2], 8.69 µM. Besides, the TGI in assay [3] came to 29.6 µM; in assay [1] it was 58.7 µM; in assay [2] it was 24.5 µM.

In the case of `COc1ccc(O)c(C(=O)c2ccc(C(=O)N[C@H]3CCCNC[C@@H]3NC(=O)c3ccncc3)cc2)c1F`, the GI50 in assay [3] was 1.27 µM; in assay [1], 0.463 µM; in assay [2], 0.823 µM. Also, the TGI was 13.7 µM in assay [3], greater than 25 µM in assay [1] and greater than 25 µM in assay [2].

`O=C(CSC1CCc2ccccc21)N/N=C/c1ccccc1O` (configuration not stated): the GI50 in assay [3] is 5.46 µM; in assay [1] it was 7.04 µM; in assay [2] it was 2.89 µM. Besides, the TGI in assay [3] was 34.2 µM; in assay [1] it was greater than 100 µM; in assay [2] it was greater than 100 µM.
